Consider 10 molecules from ChEMBL document CHEMBL1201862, “PubChem BioAssay data set” (2004).

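Values below derive from 48-hour exposures of cells grown in 96-well plates, with endpoints linearly interpolated between the two concentrations bracketing the appropriate inhibition level. GI50: concentration for 50% inhibition of growth.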 Calls of active or inactive are those of the source. Cut-off read from the data, not from the text of the source: active = GI50 up to about 1.1 µM and inactive = higher.

Some test systems named below: 786-0; ACHN; CCRF-CEM; COLO 205; HCT-15; K562; M14; MDA-MB-231; MDA-MB-435; MDA-N; MOLT-4; OVCAR-3; PC-3; SF-295; SK-MEL-28; SK-MEL-5; SK-OV-3; SNB-19; TK-10; UACC-257.
Experiment in all cases: NCI anticancer screen, dose series, 48 h

In the case of `COC(=O)Oc1nn(C(=O)OC)c(=O)c2ccccc12`, the GI50 in the assay with 786-0 is > 100 µM (inactive); in the assay on ACHN it was > 100 µM (inactive); in the assay with CCRF-CEM, > 100 µM (inactive); in the assay on COLO 205, 85.1 µM (inactive); in the assay with HCT-15, > 100 µM; in the assay on K562 it was > 100 µM (inactive). Further, the GI50 in the assay on M14 is > 100 µM (inactive); in the assay with MDA-MB-231, 95.3 µM (inactive); in the assay on MDA-MB-435, > 100 µM (inactive); with MDA-N, > 100 µM (inactive); with MOLT-4 it was > 100 µM (inactive); with OVCAR-3, > 100 µM (inactive). Besides, the GI50 in the assay on PC-3, with SF-295, in the assay on SK-MEL-28, with SK-MEL-5, in the assay on SK-OV-3 and in the assay with SNB-19 was > 100 µM (inactive) each time. Further, the GI50 in the assay with TK-10 and in the assay on UACC-257 was > 100 µM (inactive) in each case.

`c1ccc2c(c1)Nc1ccccc1[P+]21c2ccccc2Nc2ccccc21`: the GI50 in the assay with 786-0 is 0.401 µM (active); with ACHN, 1.86 µM (inactive); with CCRF-CEM, 0.158 µM (active); in the assay with COLO 205, 0.048 µM (active); with HCT-15 it was 5.73 µM; in the assay with K562, 0.212 µM (active). The GI50 was 0.351 µM (active) with M14; 0.212 µM (active) in the assay with MDA-MB-231; 0.284 µM (active) in the assay on MDA-MB-435; 0.27 µM (active) in the assay with MDA-N; 0.0525 µM (active) in the assay on MOLT-4; 0.195 µM (active) with OVCAR-3. Besides, the GI50 with PC-3 is 0.169 µM (active); with SF-295, 1.3 µM (inactive); with SK-MEL-28, 0.244 µM (active); with SK-MEL-5 it was 0.165 µM (active); with SK-OV-3, 0.267 µM (active); with SNB-19, 0.299 µM (active). The figures for the GI50 with TK-10 and in the assay on UACC-257 were 0.581 µM (active) and 0.214 µM (active), respectively.

In the case of `CC1(C)C2CC1C(/C=N\OCC(=O)O)=CC2=O` (stereo not given), the GI50 in the assay on 786-0 is > 100 µM (inactive); in the assay on ACHN, > 100 µM (inactive); in the assay with CCRF-CEM, > 100 µM (inactive); in the assay with COLO 205, > 100 µM (inactive); in the assay on HCT-15 it was > 100 µM; in the assay with K562, > 100 µM (inactive). Further, the GI50 in the assay on M14, in the assay with MDA-MB-231, with MDA-MB-435, with MDA-N, with MOLT-4 and in the assay on OVCAR-3 was > 100 µM (inactive) each time. The GI50 in the assay with PC-3, in the assay with SF-295, in the assay with SK-MEL-28, in the assay with SK-MEL-5, with SK-OV-3 and with SNB-19 was > 100 µM (inactive) throughout. The GI50 with TK-10 and with UACC-257 was > 100 µM (inactive) each time.

Consider `COc1cc(C(c2ccc3c(c2)OCO3)N2C(=O)CCC2C(=O)O)cc(OC)c1OC` (stereo not given), for which the GI50 in the assay with 786-0 is > 100 µM (inactive); in the assay on ACHN, > 100 µM (inactive); in the assay on CCRF-CEM, > 100 µM (inactive); in the assay with COLO 205, > 100 µM (inactive); with HCT-15, > 100 µM; with K562, > 100 µM (inactive). In addition, the GI50 with M14, with MDA-MB-231, in the assay on MDA-MB-435, in the assay on MDA-N, in the assay on MOLT-4 and with OVCAR-3 was > 100 µM (inactive) in each case. Moreover, the GI50 in the assay on PC-3, in the assay on SF-295, in the assay with SK-MEL-28, in the assay with SK-MEL-5, in the assay with SK-OV-3 and in the assay on SNB-19 was > 100 µM (inactive) each time. Also, the GI50 in the assay with TK-10 and with UACC-257 was > 100 µM (inactive) throughout.

Take `Nc1ccc2c(c1)N(C(=O)c1cc3cc(NC(=O)c4cc5ccccc5o4)ccc3[nH]1)CC2CCl` (stereo not given): the GI50 in the assay with 786-0 was 0.0638 µM (active); with ACHN it was 0.0199 µM (active); in the assay on CCRF-CEM it was 0.0405 µM (active); in the assay with COLO 205 it was 0.0904 µM (active); in the assay with HCT-15, 0.0847 µM; in the assay on K562 it was 0.0662 µM (active). Further, the GI50 in the assay on M14 was 0.12 µM (active); with MDA-MB-231 it was 0.239 µM (active); with MDA-MB-435, 0.162 µM (active); with MDA-N it was 0.183 µM (active); with MOLT-4, 0.045 µM (active); with OVCAR-3 it was 0.0743 µM (active). In addition, the GI50 in the assay on PC-3 is 0.0671 µM (active); with SF-295, 0.0434 µM (active); in the assay on SK-MEL-28, 0.177 µM (active); with SK-MEL-5 it was 0.0397 µM (active); in the assay with SK-OV-3, 0.128 µM (active); in the assay on SNB-19, 0.277 µM (active). Besides, the GI50 was 0.283 µM (active) in the assay with TK-10 and 0.113 µM (active) in the assay with UACC-257.

Consider `COc1ccc(C(=O)/C=C/c2ccc(OCC(=N)N)cc2)cc1`, for which the GI50 in the assay with 786-0 was 16.3 µM (inactive); in the assay with ACHN, 17.6 µM (inactive); with CCRF-CEM it was 4.06 µM (inactive); in the assay with COLO 205, 14.2 µM (inactive); with HCT-15 it was 17.2 µM; in the assay with K562 it was 3.44 µM (inactive). In addition, the GI50 is 17 µM (inactive) with M14; 12.9 µM (inactive) in the assay on MDA-MB-231; 19.3 µM (inactive) in the assay on MDA-MB-435; 16.7 µM (inactive) with MDA-N; 3.58 µM (inactive) in the assay on MOLT-4; 14.4 µM (inactive) in the assay on OVCAR-3. In addition, the GI50 in the assay with PC-3 was 14.7 µM (inactive); with SF-295, 16.3 µM (inactive); in the assay on SK-MEL-28, 15.3 µM (inactive); in the assay with SK-MEL-5, 17.3 µM (inactive); in the assay on SK-OV-3, 12.9 µM (inactive); with SNB-19, 15.8 µM (inactive). The GI50 in the assay with TK-10 is 21.4 µM (inactive); in the assay on UACC-257, 18.5 µM (inactive).

For the molecule `OC1c2ccccc2CCC1C(O)(C(F)(F)F)C(F)(F)F` (stereo not given), the GI50 was > 100 µM (inactive) with 786-0; > 100 µM (inactive) in the assay with ACHN; > 100 µM (inactive) in the assay with CCRF-CEM; > 100 µM (inactive) in the assay with COLO 205; > 100 µM in the assay with HCT-15; > 100 µM (inactive) in the assay with K562. The GI50 was > 100 µM (inactive) with M14; 11 µM (inactive) with MDA-MB-231; > 100 µM (inactive) in the assay with MDA-MB-435; > 100 µM (inactive) in the assay on MDA-N; > 100 µM (inactive) with MOLT-4; 58.6 µM (inactive) in the assay on OVCAR-3. Also, the GI50 with PC-3, in the assay on SF-295, in the assay on SK-MEL-28, in the assay on SK-MEL-5, with SK-OV-3 and with SNB-19 was > 100 µM (inactive) each time. Further, the GI50 in the assay with TK-10 was > 100 µM (inactive).

Regarding `CCOC(=O)CC(=O)C(=O)NN=C1NCCCN1`, the GI50 with 786-0 was > 100 µM (inactive); with ACHN, > 100 µM (inactive); in the assay on CCRF-CEM it was > 100 µM (inactive); in the assay with COLO 205 it was > 100 µM (inactive); with HCT-15, > 100 µM; in the assay with K562, > 100 µM (inactive). The GI50 in the assay with M14, in the assay with MDA-MB-231, with MDA-MB-435, with MDA-N, in the assay on MOLT-4 and in the assay with OVCAR-3 was > 100 µM (inactive) each time. Also, the GI50 in the assay with PC-3, in the assay on SF-295, with SK-MEL-28, with SK-MEL-5, with SK-OV-3 and with SNB-19 was > 100 µM (inactive) in each case. Besides, the GI50 in the assay on TK-10 is > 100 µM (inactive).

Take `Cn1c2ccccc2n2c3ncccc3c(=S)c(C#N)c12`: the GI50 in the assay with 786-0 is 75.7 µM (inactive); in the assay with ACHN it was > 100 µM (inactive); in the assay on CCRF-CEM, > 100 µM (inactive); in the assay on COLO 205, > 100 µM (inactive); in the assay with HCT-15, > 100 µM; in the assay with K562, > 100 µM (inactive). In addition, the GI50 in the assay with M14, in the assay with MDA-MB-231, with MDA-MB-435, with MDA-N, in the assay with MOLT-4 and with OVCAR-3 was > 100 µM (inactive) each time. For the same molecule, the GI50 in the assay on PC-3, in the assay on SF-295, in the assay on SK-MEL-28, in the assay with SK-MEL-5, with SK-OV-3 and in the assay on SNB-19 was > 100 µM (inactive) throughout.

For the molecule `COc1cc([C@@H]2c3cc4c(cc3[C@@H](OC3OC5CO[C@@H](c6cccs6)OC5C(O)C3O)[C@H]3COC(=O)[C@H]23)OCO4)cc(OC)c1O` (stereo not given in full), the GI50 with 786-0 is 0.285 µM (active); with ACHN, 0.173 µM (active); in the assay on CCRF-CEM, 0.046 µM (active); in the assay with COLO 205, 0.527 µM (active); with HCT-15, 1.55 µM; in the assay on K562, 0.724 µM (active). The GI50 in the assay on M14 was 0.594 µM (active); in the assay with MDA-MB-231, 1.12 µM (active); in the assay with MDA-MB-435, 1.34 µM (inactive); in the assay on MDA-N, 1.03 µM (active); in the assay on OVCAR-3 it was 1.73 µM (inactive); with PC-3 it was 1.11 µM (active). Besides, the GI50 in the assay with SF-295 was 0.144 µM (active); in the assay with SK-MEL-28, 1.66 µM (inactive); in the assay on SK-MEL-5, 0.548 µM (active); with SK-OV-3, 0.395 µM (active); in the assay on SNB-19, 0.299 µM (active); in the assay on TK-10, 1.75 µM (inactive). Further, the GI50 with UACC-257 is 1.86 µM (inactive).
